In patent US11649255B2, “Indazoles as hematopoietic progenitor kinase 1 (HPK1) inhibitors and methods using same” (1st Biotherapeutics, Inc., priority 2020, dated 2023):

Molecular target: recombinant human HPK1 (Homo sapiens (Human), UniProt Q92918)
Test: HPK1 kinase assay (ADP-Glo)
Type: biochemical
Details: 25 μM ATP, MBP substrate
Method in brief: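 Activity was read as ADP formed, detected by ADP-Glo luminescence after the reaction of 5 ng recombinant human HPK1 with MBP and ATP (stocks 0.5 μg/μl and 25 μM) for 40 min at 30 °C. Buffer was Tris pH 7.5 with MgCl2, BSA and DTT, with compound in 0.5% DMSO. IC50 came from inhibition curves.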

Sequence of recombinant human HPK1 (Q92918 whole entry): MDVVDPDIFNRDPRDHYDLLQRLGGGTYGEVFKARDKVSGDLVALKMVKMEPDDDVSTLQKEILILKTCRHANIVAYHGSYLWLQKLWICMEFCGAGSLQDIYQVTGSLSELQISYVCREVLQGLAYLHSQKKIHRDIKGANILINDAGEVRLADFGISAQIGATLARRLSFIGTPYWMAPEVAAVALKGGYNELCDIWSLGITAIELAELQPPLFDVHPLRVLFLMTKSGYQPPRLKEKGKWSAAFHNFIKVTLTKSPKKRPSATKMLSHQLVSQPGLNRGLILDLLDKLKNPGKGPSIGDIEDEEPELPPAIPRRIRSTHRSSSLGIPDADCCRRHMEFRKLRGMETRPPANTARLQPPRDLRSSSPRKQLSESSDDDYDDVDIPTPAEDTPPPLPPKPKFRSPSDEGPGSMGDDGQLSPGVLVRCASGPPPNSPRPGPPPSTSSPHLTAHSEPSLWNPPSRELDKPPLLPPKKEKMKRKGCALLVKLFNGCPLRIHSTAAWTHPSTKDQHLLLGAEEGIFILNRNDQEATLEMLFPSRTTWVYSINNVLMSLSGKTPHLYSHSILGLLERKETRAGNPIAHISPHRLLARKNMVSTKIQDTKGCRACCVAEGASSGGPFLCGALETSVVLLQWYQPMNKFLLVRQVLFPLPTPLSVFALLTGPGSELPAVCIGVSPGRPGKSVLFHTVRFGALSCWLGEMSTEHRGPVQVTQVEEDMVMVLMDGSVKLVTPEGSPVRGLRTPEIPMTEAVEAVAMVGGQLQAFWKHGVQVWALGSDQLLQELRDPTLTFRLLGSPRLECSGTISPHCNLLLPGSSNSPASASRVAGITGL

SMILES | IC50
CC(Nc1c(F)c(Cl)c(-c2ccc3nc(NC(=O)[C@@H]4C[C@@H]4F)cn3c2)c2cn[nH]c12)C(F)F (stereo partly drawn) [Example 425, (1S,2S)-N-(6-(5-chloro-7-((1,1-difluoropropan-2-yl)amino)-6-fluoro-1H-indazol-4-yl)imidazo[1,2-a]pyridin-2-yl)-2-fluorocyclopropane-1-carboxamide] | < 100 nM
CC(NC=O)c1c(F)c(Cl)c(-c2ccc3nc(NC(=O)[C@@H]4C[C@@H]4F)cn3c2)c2cn[nH]c12 (stereo partly drawn) [Example 426, (1S,2S)-N-(6-(5-chloro-6-fluoro-7-(1-formamidoethyl)-1H-indazol-4-yl)imidazo[1,2-a]pyridin-2-yl)-2-fluorocyclopropane-1-carboxamide] | < 100 nM
CC(NC1COC1)c1c(F)c(Cl)c(-c2ccc3nc(NC(=O)[C@@H]4C[C@@H]4F)cn3c2)c2cn[nH]c12 (stereo partly drawn) [Example 427, (1S,2S)-N-(6-(5-chloro-6-fluoro-7-(1-(oxetan-3-ylamino)ethyl)-1H-indazol-4-yl)imidazo[1,2-a]pyridin-2-yl)-2-fluorocyclopropane-1-carboxamide] | < 100 nM
CC(NC(=O)C(F)(F)F)c1c(F)c(Cl)c(-c2ccc3nc(NC(=O)[C@@H]4C[C@@H]4F)cn3c2)c2cn[nH]c12 (stereo partly drawn) [Example 428, (1S,2S)-N-(6-(5-chloro-6-fluoro-7-(1-(2,2,2-trifluoroacetamido)ethyl)-1H-indazol-4-yl)imidazo[1,2-a]pyridin-2-yl)-2-fluorocyclopropane-1-carboxamide] | < 100 nM
CC(NC1(C#N)CC1)c1c(F)c(Cl)c(-c2ccc3nc(NC(=O)[C@@H]4C[C@@H]4F)cn3c2)c2cn[nH]c12 (stereo partly drawn) [Example 429, (1S,2S)-N-(6-(5-chloro-7-(1-((1-cyanocyclopropyl)amino)ethyl)-6-fluoro-1H-indazol-4-yl)imidazo[1,2-a]pyridin-2-yl)-2-fluorocyclopropane-1-carboxamide] | < 100 nM
CC(NC(=O)C1CCC1)c1c(F)c(Cl)c(-c2ccc3nc(NC(=O)[C@@H]4C[C@@H]4F)cn3c2)c2cn[nH]c12 (stereo partly drawn) [Example 430, N-(1-(5-chloro-6-fluoro-4-(2-((1S,2S)-2-fluorocyclopropane-1-carboxamido)imidazo[1,2-a]pyridin-6-yl)-1H-indazol-7-yl)ethyl)cyclobutanecarboxamide] | < 100 nM
O=C(Nc1cn2cc(-c3c(Cl)c(F)c(-c4cnc[nH]4)c4[nH]ncc34)ccc2n1)[C@@H]1C[C@@H]1F [Example 431, (1S,2S)-N-(6-(5-chloro-6-fluoro-7-(1H-imidazol-5-yl)-1H-indazol-4-yl)imidazo[1,2-a]pyridin-2-yl)-2-fluorocyclopropane-1-carboxamide] | 101 to 500 nM
CNC(=O)C(C)c1c(F)c(Cl)c(-c2ccc3nc(NC(=O)[C@@H]4C[C@@H]4F)cn3c2)c2cn[nH]c12 (stereo partly drawn) [Example 433, (1S,2S)-N-(6-(5-chloro-6-fluoro-7-(1-(methylamino)-1-oxopropan-2-yl)-1H-indazol-4-yl)imidazo[1,2-a]pyridin-2-yl)-2-fluorocyclopropane-1-carboxamide] | < 100 nM
CNC(=O)N(C)c1c(F)c(Cl)c(-c2ccc3nc(NC(=O)[C@@H]4C[C@@H]4F)cn3c2)c2cn[nH]c12 [Example 435, (1S,2S)-N-(6-(5-chloro-7-(1,3-dimethylureido)-6-fluoro-1H-indazol-4-yl)imidazo[1,2-a]pyridin-2-yl)-2-fluorocyclopropane-1-carboxamide] | < 100 nM
CO[C@H](C)[C@@H](OC)c1c(F)c(Cl)c(-c2ccc3nc(NC(=O)[C@@H]4C[C@@H]4F)cn3c2)c2cn[nH]c12 [Example 440, (1S,2S)-N-(6-(5-chloro-7-((1S,2R)-1,2-dimethoxypropyl)-6-fluoro-1H-indazol-4-yl)imidazo[1,2-a]pyridin-2-yl)-2-fluorocyclopropane-1-carboxamide] | < 100 nM
CC(NC(=O)C(F)F)c1c(F)c(Cl)c(-c2ccc3nc(NC(=O)[C@@H]4C[C@@H]4F)cn3c2)c2cn[nH]c12 (stereo partly drawn) [Example 441, (1S,2S)-N-(6-(5-chloro-7-(1-(2,2-difluoroacetamido)ethyl)-6-fluoro-1H-indazol-4-yl)imidazo[1,2-a]pyridin-2-yl)-2-fluorocyclopropane-1-carboxamide] | < 100 nM
Cc1ncc(-c2c(F)c(Cl)c(-c3ccc4nc(NC(=O)[C@@H]5C[C@@H]5F)cn4c3)c3cn[nH]c23)[nH]1 [Example 442, (1S,2S)-N-(6-(5-chloro-6-fluoro-7-(2-methyl-1H-imidazol-5-yl)-1H-indazol-4-yl)imidazo[1,2-a]pyridin-2-yl)-2-fluorocyclopropane-1-carboxamide] | < 100 nM
CC(c1c(F)c(Cl)c(-c2ccc3nc(NC(=O)[C@@H]4C[C@@H]4F)cn3c2)c2cn[nH]c12)[S+](C)[O-] (stereo partly drawn) [Example 443, (1S,2S)-N-(6-(5-chloro-6-fluoro-7-(1-(methylsulflnyl)ethyl)-1H-indazol-4-yl)imidazo[1,2-a]pyridin-2-yl)-2-fluorocyclopropane-1-carboxamide] | < 100 nM
CC(c1c(F)c(Cl)c(-c2ccc3nc(NC(=O)[C@@H]4C[C@@H]4F)cn3c2)c2cn[nH]c12)S(C)(=O)=O (stereo partly drawn) [Example 444, (1S,2S)-N-(6-(5-chloro-6-fluoro-7-(1-(methylsulfonyl)ethyl)-1H-indazol-4-yl)imidazo[1,2-a]pyridin-2-yl)-2-fluorocyclopropane-1-carboxamide] | < 100 nM
CCNC(=O)C(C)c1c(F)c(Cl)c(-c2ccc3nc(NC(=O)[C@@H]4C[C@@H]4F)cn3c2)c2cn[nH]c12 (stereo partly drawn) [Example 445, (1S,2S)-N-(6-(5-chloro-7-(1-(ethylamino)-1-oxopropan-2-yl)-6-fluoro-1H-indazol-4-yl)imidazo[1,2-a]pyridin-2-yl)-2-fluorocyclopropane-1-carboxamide] | < 100 nM
C=Cc1c(F)cc2[nH]ncc2c1-c1ccn2nc(NC(=O)[C@@H]3C[C@@H]3F)cc2c1 [Example 447, (1S,2S)-2-fluoro-N-(5-(6-fluoro-5-vinyl-1H-indazol-4-yl)pyrazolo[1,5-a]pyridin-2-yl)cyclopropane-1-carboxamide] | < 100 nM
O=C(Nc1cc2cc(-c3c(Cl)ccc4[nH]ncc34)ccn2n1)[C@@H]1C[C@@H]1F [Example 448, (1S,2S)-N-(5-(5-chloro-1H-indazol-4-yl)pyrazolo[1,5-a]pyridin-2-yl)-2-fluorocyclopropane-1-carboxamide] | < 100 nM
COc1ccc2[nH]ncc2c1-c1ccn2nc(NC(=O)[C@@H]3C[C@@H]3F)cc2c1 [Example 449, (1S,2S)-2-fluoro-N-(5-(5-methoxy-1H-indazol-4-yl)pyrazolo[1,5-a]pyridin-2-yl)cyclopropane-1-carboxamide] | 101 to 500 nM
CN(C)c1ccc2[nH]ncc2c1-c1ccn2nc(NC(=O)[C@@H]3C[C@@H]3F)cc2c1 [Example 450, (1S,2S)-N-(5-(5-(dimethylamino)-1H-indazol-4-yl)pyrazolo[1,5-a]pyridin-2-yl)-2-fluorocyclopropane-1-carboxamide] | > 1000 nM
O=C(Nc1cc2cc(-c3c(C(F)(F)F)ccc4[nH]ncc34)ccn2n1)[C@@H]1C[C@@H]1F [Example 451, (1S,2S)-2-fluoro-N-(5-(5-(trifluoromethyl)-1H-indazol-4-yl)pyrazolo[1,5-a]pyridin-2-yl)cyclopropane-1-carboxamide] | < 100 nM
CCc1ccc2[nH]ncc2c1-c1ccn2nc(NC(=O)[C@@H]3C[C@@H]3F)cc2c1 [Example 452, (1S,2S)-N-(5-(5-ethyl-1H-indazol-4-yl)pyrazolo[1,5-a]pyridin-2-yl)-2-fluorocyclopropane-1-carboxamide] | < 100 nM
